The source of these data is ChEMBL document CHEMBL4373739, “6-Cinnamoyl-4-arylaminothienopyrimidines as highly potent cytotoxic agents: Design, synthesis and structure-activity relationship studies” (Eur J Med Chem, 2020).

One experiment relates to MDA-MB-231. Nature of the experiment: Antiproliferative activity against human MDA-MB-231 cells incubated for 48 hrs by MTT assay. The format is functional, cell-based. The settings on record: MDA-MB-231, 48 h.
The compound `O=C(/C=C/c1ccccc1)Nc1cc2c(Nc3ccc(F)c(Cl)c3)ncnc2s1` returned an IC50 of 7.6 µM.

Consider `O=C(/C=C/c1ccccc1)Nc1cc2c(Nc3cccc(Cl)c3F)ncnc2s1`, for which the IC50 amounted to 3.93 µM. This IC50 lies about 1.9-fold lower than the previous one.

The compound `O=C(/C=C/c1ccccc1)Nc1cc2c(Nc3ccc(Cl)c(Cl)c3)ncnc2s1` had an IC50 of 4.4 µM. The IC50 values of the last two compounds are within 1.5-fold of each other.

Compound `O=C(/C=C/c1ccccc1)Nc1cc2ncnc(Nc3cc(Cl)cc(Cl)c3)c2s1` had an IC50 of 1 µM. Against the preceding compound, the IC50 is about 4.4-fold lower.

In turn, `N#Cc1cccc(Nc2ncnc3cc(NC(=O)/C=C/c4ccccc4)sc23)c1` displayed a 50% inhibitory concentration (IC50) of 1.04 µM.

`COc1ccc(/C=C/C(=O)Nc2cc3ncnc(Nc4ccc(F)c(Cl)c4)c3s2)cc1`: the midpoint of inhibition, the IC50, lay at 2.6 µM.

For `COc1ccc(/C=C/C(=O)Nc2cc3c(Nc4cc(Cl)cc(Cl)c4)ncnc3s2)cc1`, the 50% inhibitory concentration (IC50) was found to be 1.97 µM.

Compound `C#Cc1cccc(Nc2ncnc3sc(NC(=O)/C=C/c4ccccc4)cc23)c1` yielded a concentration for half-maximal inhibition (IC50) of 5.05 µM.

The test system of another experiment is HepG2. Nature of the experiment: Antiproliferative activity against human HepG2 cells incubated for 48 hrs by MTT assay. The format is functional, cell-based. The settings on record: HepG2, 48 h.
Take `O=C(/C=C/c1ccccc1)Nc1cc2c(Nc3ccc(F)c(Cl)c3)ncnc2s1`: half-maximal inhibition (IC50) required 22.8 µM.

Compound `O=C(/C=C/c1ccccc1)Nc1cc2c(Nc3cccc(Cl)c3F)ncnc2s1` showed an IC50 of 44.6 µM.

Turning to `O=C(/C=C/c1ccccc1)Nc1cc2c(Nc3ccc(Cl)c(Cl)c3)ncnc2s1`, the IC50 was 30.1 µM.

`O=C(/C=C/c1ccccc1)Nc1cc2ncnc(Nc3cc(Cl)cc(Cl)c3)c2s1`: the half-maximal inhibitory concentration (IC50) worked out at 10.7 µM. This IC50 is about 2.8-fold lower than that of the compound before.

As to `N#Cc1cccc(Nc2ncnc3cc(NC(=O)/C=C/c4ccccc4)sc23)c1`, it took 15.9 µM to reach half-maximal inhibition (IC50).

`COc1ccc(/C=C/C(=O)Nc2cc3ncnc(Nc4ccc(F)c(Cl)c4)c3s2)cc1` registered an IC50 of 13.9 µM.

`COc1ccc(/C=C/C(=O)Nc2cc3c(Nc4cc(Cl)cc(Cl)c4)ncnc3s2)cc1`: the concentration for half-maximal inhibition (IC50) was found to be 41.8 µM.

`C#Cc1cccc(Nc2ncnc3sc(NC(=O)/C=C/c4ccccc4)cc23)c1`: the IC50 came out at 58.1 µM.

A further experiment has as its system HeLa. Nature of the experiment: Antiproliferative activity against human HeLa cells incubated for 48 hrs by MTT assay. The format is functional, cell-based.
Conditions: not given
For `O=C(/C=C/c1ccccc1)Nc1cc2c(Nc3ccc(F)c(Cl)c3)ncnc2s1`, the 50% inhibitory concentration (IC50) came out at 2.14 µM.

Compound `O=C(/C=C/c1ccccc1)Nc1cc2c(Nc3cccc(Cl)c3F)ncnc2s1` displayed an IC50 of 34.9 µM.

For the compound `O=C(/C=C/c1ccccc1)Nc1cc2c(Nc3ccc(Cl)c(Cl)c3)ncnc2s1`, half-maximal inhibition (IC50) was put at 0.43 µM.

For the compound `O=C(/C=C/c1ccccc1)Nc1cc2ncnc(Nc3cc(Cl)cc(Cl)c3)c2s1`, the IC50 turned out to be 3.21 µM.

Take `N#Cc1cccc(Nc2ncnc3cc(NC(=O)/C=C/c4ccccc4)sc23)c1`: half-maximal inhibition (IC50) required 7.22 µM. This IC50 is about 2.2-fold higher than that of the compound before.

Turning to `COc1ccc(/C=C/C(=O)Nc2cc3ncnc(Nc4ccc(F)c(Cl)c4)c3s2)cc1`, it took 20.6 µM to reach half-maximal inhibition (IC50).

In the case of `COc1ccc(/C=C/C(=O)Nc2cc3c(Nc4cc(Cl)cc(Cl)c4)ncnc3s2)cc1`, the IC50 stood at 43.3 µM.

Compound `C#Cc1cccc(Nc2ncnc3sc(NC(=O)/C=C/c4ccccc4)cc23)c1` yielded an IC50 of 4.64 µM. This IC50 is about 9.3-fold lower than that of the compound before.

The subject of a further experiment is MCF7. Nature of the experiment: Antiproliferative activity against human MCF7 cells incubated for 48 hrs by MTT assay. The settings on record: MCF7, 48 h. It is filed as functional, cell-based.
In the case of `O=C(/C=C/c1ccccc1)Nc1cc2c(Nc3ccc(F)c(Cl)c3)ncnc2s1`, the IC50 came out at 14.3 µM.

In turn, `O=C(/C=C/c1ccccc1)Nc1cc2c(Nc3cccc(Cl)c3F)ncnc2s1` displayed a concentration for half-maximal inhibition (IC50) of 93.9 µM.

In turn, `O=C(/C=C/c1ccccc1)Nc1cc2c(Nc3ccc(Cl)c(Cl)c3)ncnc2s1` gave an IC50 of 15.3 µM. Compared with the last compound, the IC50 is about 6.1-fold lower.

Compound `O=C(/C=C/c1ccccc1)Nc1cc2ncnc(Nc3cc(Cl)cc(Cl)c3)c2s1` displayed an IC50 above 100 µM.

In turn, `N#Cc1cccc(Nc2ncnc3cc(NC(=O)/C=C/c4ccccc4)sc23)c1` gave an IC50 above 100 µM.

With `COc1ccc(/C=C/C(=O)Nc2cc3ncnc(Nc4ccc(F)c(Cl)c4)c3s2)cc1`, inhibition was half-maximal at 29.1 µM (IC50).

`COc1ccc(/C=C/C(=O)Nc2cc3c(Nc4cc(Cl)cc(Cl)c4)ncnc3s2)cc1` displayed an IC50 of 75.6 µM.

Consider `C#Cc1cccc(Nc2ncnc3sc(NC(=O)/C=C/c4ccccc4)cc23)c1`, for which the IC50 was 38.4 µM.

For another experiment, the system named is A549. Nature of the experiment: Antiproliferative activity against human A549 cells incubated for 48 hrs by MTT assay. The settings on record: A549, 48 h. It is filed as functional, cell-based.
Take `O=C(/C=C/c1ccccc1)Nc1cc2c(Nc3ccc(F)c(Cl)c3)ncnc2s1`: the IC50 was found to be 11.2 µM.

The compound `O=C(/C=C/c1ccccc1)Nc1cc2c(Nc3cccc(Cl)c3F)ncnc2s1` gave an IC50 of 26.2 µM. Compared with the last compound, the IC50 is about 2.3-fold higher.

For the compound `O=C(/C=C/c1ccccc1)Nc1cc2c(Nc3ccc(Cl)c(Cl)c3)ncnc2s1`, the IC50 was found to be 7.6 µM.

With `O=C(/C=C/c1ccccc1)Nc1cc2ncnc(Nc3cc(Cl)cc(Cl)c3)c2s1`, the IC50 was found to be 12.5 µM.

Consider `N#Cc1cccc(Nc2ncnc3cc(NC(=O)/C=C/c4ccccc4)sc23)c1`, for which the IC50 worked out at 17.2 µM.

For `COc1ccc(/C=C/C(=O)Nc2cc3ncnc(Nc4ccc(F)c(Cl)c4)c3s2)cc1`, it took 22.7 µM to reach half-maximal inhibition (IC50).

Compound `COc1ccc(/C=C/C(=O)Nc2cc3c(Nc4cc(Cl)cc(Cl)c4)ncnc3s2)cc1` showed an IC50 of 21.9 µM.

Take `C#Cc1cccc(Nc2ncnc3sc(NC(=O)/C=C/c4ccccc4)cc23)c1`: the 50% inhibitory concentration (IC50) was 10.1 µM.

The subject of the next experiment is PC-3. The experiment is described as follows: Antiproliferative activity against human PC3 cells incubated for 48 hrs by MTT assay. The format is functional, cell-based. The settings on record: PC-3, 48 h.
Consider `O=C(/C=C/c1ccccc1)Nc1cc2c(Nc3ccc(F)c(Cl)c3)ncnc2s1`, for which half-maximal inhibition (IC50) was put at 0.7 µM.

In turn, `O=C(/C=C/c1ccccc1)Nc1cc2c(Nc3cccc(Cl)c3F)ncnc2s1` displayed an IC50 of 0.4 µM.

With `O=C(/C=C/c1ccccc1)Nc1cc2c(Nc3ccc(Cl)c(Cl)c3)ncnc2s1`, the IC50 was 0.48 µM.

`O=C(/C=C/c1ccccc1)Nc1cc2ncnc(Nc3cc(Cl)cc(Cl)c3)c2s1` registered an IC50 of 0.22 µM.

Take `N#Cc1cccc(Nc2ncnc3cc(NC(=O)/C=C/c4ccccc4)sc23)c1`: the IC50 stood at 0.54 µM.

Take `COc1ccc(/C=C/C(=O)Nc2cc3ncnc(Nc4ccc(F)c(Cl)c4)c3s2)cc1`: the IC50 was determined as 0.1 µM.

`COc1ccc(/C=C/C(=O)Nc2cc3c(Nc4cc(Cl)cc(Cl)c4)ncnc3s2)cc1` returned an IC50 of 0.45 µM.

`C#Cc1cccc(Nc2ncnc3sc(NC(=O)/C=C/c4ccccc4)cc23)c1` showed an IC50 of 0.4 µM. The IC50 values of the last two compounds are within 1.5-fold of each other.
